From the Kinase Knowledgebase extract (Sharma et al. 2016)
pIC50: −log10 of the molar value.

Columns and labels:
[1] = biological target: MAPK14 (human) (UniProt Q16539); assay: p38 Kinase Inhibition
[2] = biological target: MAPK14 (UniProt Q16539); assay: p38 --- TNF-alpha Inhibition; details: for pIC50: thp1
Chain of MAPK14 (Q16539 whole entry, looked up): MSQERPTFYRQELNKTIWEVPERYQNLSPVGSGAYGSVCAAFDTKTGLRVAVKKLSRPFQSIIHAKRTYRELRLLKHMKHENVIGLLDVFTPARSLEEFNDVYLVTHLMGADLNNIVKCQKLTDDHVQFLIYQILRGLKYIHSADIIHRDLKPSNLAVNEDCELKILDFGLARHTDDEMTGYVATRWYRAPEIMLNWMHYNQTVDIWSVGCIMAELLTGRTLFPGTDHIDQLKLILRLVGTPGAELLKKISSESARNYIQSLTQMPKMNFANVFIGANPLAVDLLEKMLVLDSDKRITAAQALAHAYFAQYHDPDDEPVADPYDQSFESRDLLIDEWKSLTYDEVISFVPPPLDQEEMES

Chain of MAPK14 (human) (Q16539 whole entry, looked up): as above

Compound: Fc1ccc(-c2nc3cccccc-3c2-c2ccnc(F)c2)cc1
- pIC50 [1]: 5.48
- pIC50 [2]: 5.81

Compound: Fc1cc(-c2c3cccccc-3nc2-c2cccc(C(F)(F)F)c2)ccn1
- pIC50 [1]: 4.92
- pIC50 [2]: 5.79

Compound: Fc1cc(-c2c3cccccc-3nc2-c2cccc(Cl)c2)ccn1
- pIC50 [1]: 6.03
- pIC50 [2]: 6.02

Compound: Fc1ccc(-c2nc3cccccc-3c2-c2ccncc2)cc1
- pIC50 [1]: 5.87
- pIC50 [2]: 6.64

Compound: COc1ccc(-c2nc3cccccc-3c2-c2ccncc2)cc1
- pIC50 [1]: 4.62
- inhibition ([2]; thp1, concentration not given here): 37%

Compound: CSc1nccc(-c2c3cccccc-3nc2-c2ccc(F)cc2)n1
- pIC50 [1]: 5.59
- pIC50 [2]: 5.35

Compound: CNc1nccc(-c2c3cccccc-3nc2-c2cccc(C(F)(F)F)c2)n1
- pIC50 [1]: 5.55
- pIC50 [2]: 6.17

Compound: CNc1nccc(-c2c3cccccc-3nc2-c2ccc(F)cc2)n1
- pIC50 [1]: 4.77
- pIC50 [2]: 5.77

Compound: Cc1ccc(-c2nc3cccccc-3c2-c2ccncc2)cc1
- pIC50 [1]: 5.32
- pIC50 [2]: 6.58

Compound: Clc1cccc(-c2nc3cccccc-3c2-c2ccncc2)c1
- pIC50 [1]: 5.30
- pIC50 [2]: 5.85

Compound: Clc1ccc(-c2nc3cccccc-3c2-c2ccncc2)cc1
- pIC50 [1]: 5.55
- pIC50 [2]: 5.85

Compound: FC(F)(F)c1cccc(-c2nc3cccccc-3c2-c2ccncc2)c1
- pIC50 [1]: 5.83
- pIC50 [2]: 6.80
